Key:
[1] = Phase Ia pharmacokinetics, plasma concentration before or after meal; format: in vivo, humans; conditions: for half-life: female, human, plasma, oral
Procedure: (§1) 1.1 Phase 1a: Dose-escalating study with patients suffering from advanced breast cancer. Cohorts of 3-6 patients received one dose, and 6 planned doses of 50, 100, 200, 400, 800, 1600 mg/day were orally administered to the patients over at least a 28-day cycle. 1.2 Phase 1b: Fixed doses of Icaritin with 600 mg and 800 mg BID (Bis in diem) were administered to patients suffering from advanced solid tumors for at least a 28 day cycle. 2. Major Inclusion Criteria

[2] = test system: patients suffering from advanced breast cancer; experiment: Phase Ia dose-escalating study, adverse events; format: in vivo; conditions: up to 1600 mg/d
Text: “Maximum Tolerated Dose (MTD)” means the highest dose of a radiological or pharmacological treatment that will produce the desired effect without unacceptable toxicity. In the present invention, MTD is one dose level below the cohort in which 2 patients experienced a drug-related dose limited toxicity in cycle 1.
(§2) The clinical trial includes two phases: Phase I aims to seek the maximum tolerated dose in the patients. Phase II aims to obtain the administration dosage to the patient treatments.
as §1
(§3) Phase Ia: Females of age≧18 years old and ≦65 years old, suffering from advanced breast cancer which was not responsive to previous standard treatments, were selected based on Eastern Cooperative Oncology Group (ECOG) score≦1.

[3] = test system: patients suffering from advanced breast cancer; experiment: Phase Ia dose-escalating study, tumor assessment every 28 days; format: in vivo, humans
Procedure: as §2, §1, §3
Tumor assessment was performed every 28 days. […] Further, 1 patient completed 9 cycles.

[4] = test system: HCC patients; experiment: Phase Ib efficacy and survival of HCC patients; format: in vivo, humans
Text: “CR” means a complete response was achieved after treatment, that is, all signs of cancer in the patient disappeared in response to the treatment.
“SD” means a stable disease state was seen, that is, at the end of the treatment, the disease state of the patient was little changed from pre-treatment conditions.
“OS” means overall survival days of patients. Overall survival is an indication of the proportion of people within a group who are expected to be alive after a specified time, taking into account death due to any cause, both related and unrelated to the cancer in question.
“TTP” means time to progression in the patients, that is, the length of time from the date of diagnosis or the start of treatment for a disease until the disease starts to get worse or spread to other parts of the body. In a clinical trial, measuring the time to progression is one way to see how well a new treatment works.
as §1
(§4) Phase Ib: Advanced cancer patients without standard treatment, especially HCC patients with Child-Pugh Class A or B liver function, were selected.
(§5) Phase Ib: Patients with the following conditions were excluded: ECOG score≧2, ANC≦1500 cells/μL, platelet≦80,000 cells/μL, Hb≦9.0 g/dL, bilirubin>1.5×ULN, AST or ALT>5×ULN, or albumin<2.8 g/dL.
(§6) The patients with the following conditions were also excluded: prior systemic chemotherapy, chemoembolization, percutaneous ethanol injection, or surgery for HCC<30 days.

[5] = test system: patients suffering from advanced solid tumors; experiment: Phase Ib fixed-dose study, (serious) adverse events; format: in vivo, humans
Procedure: as §1, §4, §5, §6

[6] = 600 mg bid (n = 12), based on evaluable patients, assessment every 2 cycles
[7] = 800 mg bid (n = 5), based on evaluable patients, assessment every 2 cycles

For `COc1ccc(-c2oc3c(CC=C(C)C)c(O)cc(O)c3c(=O)c2O)cc1` [Icaritin], which “Plasma concentration after a meal versus fasting” value ([1]; 800 mg once daily, FIG. 1) is on record?
The value was “higher”.

What about the Absorption saturation ([1]; 1600 mg) of the same molecule?
Its Absorption saturation is “absorption saturation occurs”.

What about the “Plasma concentration after a meal versus fasting” value ([1]; 1600 mg once daily, FIG. 2) of the same molecule?
Its value is “higher”.

What about the “Plasma concentration versus dose” value ([1]; 400, 800 and 1600 mg once daily after meal, FIG. 3) of the same molecule?
Its value is “increases with dose but not in a completely linear pattern”.

And the “Bioavailability, post-meal (fed) dosing versus fasting dosing” value ([1]; 800 and 1600 mg)?
The value was “better bioavailability in fed dosing”.

And the half-life ([1]; 800 mg Icaritin BID)?
Its half-life is 4.8 ± 2.7 h.

And the half-life ([1]; 1600 mg Icaritin BID)?
The half-life was 4.5 ± 0.8 h.

And the “Maximum plasma concentration at 800 mg compared with 1600 mg” value ([1]; once daily after meal, FIG. 3)?
Its value is “close to the plasma concentration of 1600 mg Icaritin”.

And the “Tolerability in patients with advanced malignancies” value [2]?
Its value is “well tolerated”.

What about the Dose tolerated toxicity ([2]; this phase of clinical trial) of the same molecule?
The Dose tolerated toxicity was “no dose tolerated toxicity was found”.

What about the “Tumor response (CR or PR)” value ([3]; Phase Ia, 50-1600 mg/day oral, assessment every 28 days) of the same molecule?
The value was “No CR or PR was observed”.

And the “Anti-tumor effect in advanced breast cancer” value ([3]; overall conclusion)?
Its value is “potential anti-tumor effect”.

What about the “Best response PD, patients (%)” value [4, 6] of the same molecule?
Its value is 4 (40%) patients (%).

What about the “Best response PR, patients (%)” value [4, 6] of the same molecule?
The value was 1 (10%) patients (%).

And the “Best response SD, patients (%)” value [4, 6]?
The value was 5 (50%) patients (%).

And the “Best response PD, patients (%)” value [4, 7]?
The value was 3 (60%) patients (%).

What about the “Best response PR, patients” value [4, 7] of the same molecule?
The value was 0 patients.

What about the “Best response SD, patients” value [4, 7] of the same molecule?
The value was 0 patients.

What about the “Median OS of HCC patients” value ([4]; Phase Ib, 17 patients analyzed, 95% CI:32-265, FIG. 7) of the same molecule?
The value was 113 days.

What about the Median TTP of HCC patients ([4]; Phase Ib, FIG. 6) of the same molecule?
Its Median TTP of HCC patients is 112 days.

And the “AFP of HCC patient, as treatment progressed” value ([4]; after decrease under treatment, FIG. 5)?
Its value is 3.53 ng/mL.

What about the “Abdominal lymph nodes, B-mode ultrasound image of an HCC patient” value ([4]; after eight months of treatment, FIG. 4a/4b) of the same molecule?
Its value is “complete disappearance of abdominal lymph nodes”.

What about the “AFP of HCC patient, start value” ([4]; before the decrease, FIG. 5) of the same molecule?
Its value is 5216 ng/mL.

And the “Efficacy in hepatocellular cancer” value ([4]; overall conclusion)?
Its value is “promising efficacy”.

What about the “G2 drug-related adverse events” value ([5]; 600 mg and 800 mg BID) of the same molecule?
The value was “no G2 drug-related adverse events was observed”.

And the “Serious adverse event Cardiac sudden death, No” value ([5]; dose 600)?
Its value is 1.

What about the “Serious adverse event Cardiac sudden death, outcomes” value ([5]; dose 600) of the same molecule?
Its value is “death”.

And the “Serious adverse event Cardiac sudden death, relationship” value ([5]; dose 600)?
The value was “Unlikely related”.

And the “Serious adverse event Dyspnea, No” value ([5]; dose 600)?
The value was 2.

What about the “Serious adverse event Dyspnea, outcomes” value ([5]; dose 600) of the same molecule?
Its value is “Death”.

What about the “Serious adverse event Dyspnea, relationship” value ([5]; dose 600) of the same molecule?
Its value is “Not related”.

What about the “Serious adverse event Liver abscess, No” value ([5]; dose 600) of the same molecule?
The value was 1.

And the “Serious adverse event Liver abscess, outcomes” value ([5]; dose 600)?
Its value is “unresolved”.

What about the “Serious adverse event Liver abscess, relationship” value ([5]; dose 600) of the same molecule?
Its value is “Not related”.

And the “Serious adverse event epilepsy, No” value ([5]; dose 600)?
The value was 1.

And the “Serious adverse event epilepsy, outcomes” value ([5]; dose 600)?
Its value is “unresolved”.

What about the “Serious adverse event epilepsy, relationship” value ([5]; dose 600) of the same molecule?
Its value is “Not related”.

What about the “Serious adverse event GI bleeding, No” value ([5]; dose 600/800) of the same molecule?
The value was 2.

What about the “Serious adverse event GI bleeding, outcomes” value ([5]; dose 600/800) of the same molecule?
The value was “resolved/death”.

And the “Serious adverse event GI bleeding, relationship” value ([5]; dose 600/800)?
Its value is “Not related”.

And the “Serious adverse event Sepsis, No” value ([5]; dose 800)?
The value was 1.

And the “Serious adverse event Sepsis, outcomes” value ([5]; dose 800)?
Its value is “resolved”.

And the “Serious adverse event Sepsis, relationship” value ([5]; dose 800)?
The value was “Not related”.

What about the “Serious adverse effect of pneumonia, relationship to drug” value ([5]; only one observed during study) of the same molecule?
The value was “not considered drug-related”.

— US9301942B2, “Use of icaritin for the preparation of composition for treating cancer” (priority 2013, dated 2016)
